Experimental data published in ChEMBL document CHEMBL1127699, “Inhibitors of acyl-CoA:cholesterol acyltransferase. 1. Synthesis and hypocholesterolemic activity of dibenz[b,e]oxepin-11-carboxanilides” (J Med Chem, 1994).

Assays:
Cricetinae gen. sp. [1] = assay: (§1) In vivo hypocholesterolemic activity in golden hamsters, fed with a diet containing 2% cholesterol at a dose of 10 mg/kg, po; assay type: functional, Mesocricetus auratus
Cricetinae gen. sp. [2] = assay: (§2) In vivo hypocholesterolemic activity in golden hamsters, fed with a diet containing 2% cholesterol at a dose of 30 mg/kg, po; assay type: functional, Mesocricetus auratus
[3] = target: T1, Acyl-CoA:cholesterol acyltransferase (Oryctolagus cuniculus, UniProt Q95214); assay: In vitro inhibitory activity against acyl coenzyme A:cholesterol acyltransferase in liver microsomes isolated from cholesterol-fed rabbits; parameters: species or system Microsome
T1 sequence (Q95214 whole entry): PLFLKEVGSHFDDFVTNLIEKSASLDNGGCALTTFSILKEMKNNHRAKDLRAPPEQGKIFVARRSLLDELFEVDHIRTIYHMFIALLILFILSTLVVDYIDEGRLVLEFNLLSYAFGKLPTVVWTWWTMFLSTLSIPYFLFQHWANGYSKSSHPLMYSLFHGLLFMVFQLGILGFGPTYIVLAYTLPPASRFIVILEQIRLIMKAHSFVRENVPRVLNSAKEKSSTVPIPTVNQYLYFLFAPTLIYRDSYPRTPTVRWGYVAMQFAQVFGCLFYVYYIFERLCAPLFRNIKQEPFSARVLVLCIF

Mesocricetus auratus = assay: In vivo hypocholesterolemic activity in golden hamsters, fed with a diet containing 2% cholesterol at a dose of 30 mg/kg, po
[4] = target: T2, Acyl-CoA:cholesterol acyltransferase (Oryctolagus cuniculus) (UniProt Q95214); assay: In vitro inhibitory activity against Acyl coenzyme A:cholesterol acyltransferase in liver microsomes isolated from cholesterol-fed rabbits; details: Microsome, concentration not given here
T2 sequence (whole entry): T1 sequence (Q95214 whole entry)

Cricetinae gen. sp. [5] = assay: In vivo hypocholesterolemic activity in golden hamsters, fed with a diet containing 2% cholesterol at a dose of 100 mg/kg; assay type: functional, Mesocricetus auratus
Cricetinae gen. sp. [6] = assay: as §1; assay type: functional
Rattus norvegicus [7] = assay: Effect on liver cholesterol levels in male Dawley rats at a dose of 3 mg/kg/day, po (p<=0.01); assay type: functional
Rattus norvegicus [8] = assay: Effect on liver cholesterol levels in male Dawley rats at a dose of 30 mg/kg/day, po (p<=0.01); assay type: functional
Rattus norvegicus [9] = assay: Effect on serum cholesterol levels in male Dawley rats at a dose of 1 mg/kg/day, po (p<=0.05); assay type: functional
Rattus norvegicus [10] = assay: Effect on serum cholesterol levels in male Dawley rats at a dose of 10 mg/kg/day, po (p<=0.01); assay type: functional
Rattus norvegicus [11] = assay: Effect on serum cholesterol levels in male Dawley rats at a dose of 3 mg/kg/day, po (p<=0.01); assay type: functional
Rattus norvegicus [12] = assay: Effect on serum cholesterol levels in male Dawley rats at a dose of 30 mg/kg/day, po (p<=0.01); assay type: functional
Rattus norvegicus [13] = assay: Effect on liver cholesterol levels in male Dawley rats at a dose of 1 mg/kg/day, po (p<=0.01); assay type: functional
Rattus norvegicus [14] = assay: Effect on liver cholesterol levels in male Dawley rats at a dose of 10 mg/kg/day, po (p<=0.01); assay type: functional
[15] = target: T2, Acyl-CoA:cholesterol acyltransferase (Oryctolagus cuniculus); assay: In vitro inhibitory activity against Acyl coenzyme A:cholesterol acyltransferase in liver microsomes isolated from cholesterol-fed rabbits at 1 uM; details: Microsome
Cricetinae gen. sp. [16] = assay: as §2; assay type: functional, Cricetulus griseus

Row | Compound | IC50 [3] [nM] | Reduction (Cricetinae gen. sp. [5]) [%] | other results
1 | CCCCCCCN(Cc1ccc(CC(C)(C)C)cc1)C(=O)Nc1ccc(F)cc1F [CL-277082] |  |  | Reduction (Cricetinae gen. sp. [1]): 35%; Reduction (Cricetinae gen. sp. [2]): 71%
2 | O=C(Nc1c(Cl)cccc1Cl)C1c2ccccc2COc2ccc(Br)cc21 (configuration not stated) | 74 |  | Reduction (Mesocricetus auratus): 0%
3 | Cc1cc(C(=O)O)c2c(c1)C(C(=O)Nc1c(C(C)C)cccc1C(C)C)c1ccccc1CO2 (configuration not stated) |  |  | inhibition [4]: 28%
4 | CC(C)c1cccc(C(C)C)c1NC(=O)C1c2ccccc2COc2ccc(I)cc21 (configuration not stated) | 35 |  | Reduction (Mesocricetus auratus): 73%
5 | CC(C)(C)c1ccc2c(c1)C(C(=O)Nc1c(Cl)cccc1Cl)c1ccccc1CO2 (configuration not stated) | 420 |  | 
6 | CC(C)c1cccc(C(C)C)c1NC(=O)C1c2ccccc2COc2ccc(Cl)cc21 (configuration not stated) | 150 | 97 | 
7 | CC(C)c1cccc(C(C)C)c1NC(=O)C1c2ccccc2COc2ccc(Br)cc21 (configuration not stated) | 23 | 143 | Reduction (Cricetinae gen. sp. [6]): 101%; Cholesterol level (Rattus norvegicus [7]): 15 mg/g; Cholesterol level (Rattus norvegicus [8]): 6.3 mg/g; Cholesterol level (Rattus norvegicus [9]): 214 mg/dL; Cholesterol level (Rattus norvegicus [10]): 114 mg/dL; Cholesterol level (Rattus norvegicus [11]): 167 mg/dL; Cholesterol level (Rattus norvegicus [12]): 108 mg/dL; Cholesterol level (Rattus norvegicus [13]): 19.2 mg/g; Cholesterol level (Rattus norvegicus [14]): 10.4 mg/g; Reduction (Mesocricetus auratus): 114%
8 | Cc1ccc2c(c1)C(/C(S)=N/c1c(C(C)C)cccc1C(C)C)c1ccccc1CO2 (configuration not stated) |  |  | inhibition [15]: 15%
9 | CC(C)c1cccc(C(C)C)c1NC(=O)C1c2ccccc2CCc2ccc(Br)cc21 (configuration not stated) | 39 |  | Reduction (Cricetinae gen. sp. [1]): 42%
10 | COc1cc(OC)c(NC(=O)C2c3ccccc3COc3ccc(C)cc32)c(OC)c1 (configuration not stated) | 580 |  | 
11 | CCc1cccc(CC)c1NC(=O)C1c2ccccc2COc2ccc(C)cc21 (configuration not stated) | 270 | 49 | 
12 | CC(C)c1cccc(C(C)C)c1NC(=O)C1c2ccccc2COc2ccc(C(F)(F)F)cc21 (configuration not stated) | 160 |  | Reduction (Mesocricetus auratus): 63%
13 | CC(C)c1cccc(C(C)C)c1NC(=O)C1c2ccccc2COc2ccc(C(=O)N(C)C)cc21 (configuration not stated) | 400 |  | 
14 | CCc1ccc2c(c1)C(C(=O)Nc1c(C(C)C)cccc1C(C)C)c1ccccc1CO2 (configuration not stated) | 130 | 51 | 
15 | Cc1ccc2c(c1)C(C(=O)Nc1c(C(C)C)cccc1C(C)C)c1ccccc1CO2 (configuration not stated) | 50 | 106 | Reduction (Mesocricetus auratus): 70%
16 | CC(C)c1cccc(C(C)C)c1NC(=O)C1c2cc(Br)ccc2COc2ccc(Br)cc21 (configuration not stated) | 58 |  | Reduction (Mesocricetus auratus): 40%
17 | Cc1ccc2c(c1)C(C(=O)Nc1c(Cl)cccc1Cl)c1ccccc1CO2 (configuration not stated) | 190 | 25 | 
18 | CC(C)c1cccc(C(C)C)c1NC(=O)C1c2ccccc2C=Cc2ccccc21 | 25 |  | Reduction (Cricetinae gen. sp. [2]): 73%
19 | CC(C)c1cccc(C(C)C)c1NC(=O)C1c2ccccc2COc2ccc(F)cc21 (configuration not stated) | 210 | 53 | 
20 | CC(C)c1cccc(C(C)C)c1NC(=O)C1c2ccccc2COc2ccc(C#N)cc21 (configuration not stated) | 490 |  | eduction (Cricetinae gen. sp. [16]): -6%
21 | CC(C)c1cccc(C(C)C)c1NC(=O)C1c2ccccc2COc2cc(Br)ccc21 (configuration not stated) | 180 | -2 | 
22 | CC(C)c1cccc(C(C)C)c1NC(=O)C1c2ccccc2COc2ccc(C(=O)O)cc21 (configuration not stated) |  |  | inhibition [4]: 1%
23 | CC(C)c1cccc(C(C)C)c1NC(=O)C1c2cc(Br)ccc2OCc2ncccc21 (configuration not stated) | 78 |  | Reduction (Mesocricetus auratus): 47%
24 | Cc1ccc2c(c1)C(C(=O)Nc1ccccc1C(C)C)c1ccccc1CO2 (configuration not stated) | 730 | 18 | 
25 | COC(=O)c1cc(C)cc2c1OCc1ccccc1C2C(=O)Nc1c(C(C)C)cccc1C(C)C (configuration not stated) | 27 |  | Reduction (Cricetinae gen. sp. [6]): 28%; Reduction (Mesocricetus auratus): 84%
26 | CC(C)c1cccc(C(C)C)c1NC(=O)C1c2ccccc2COc2ccccc21 (configuration not stated) | 94 | 2 | 

Row | Compound | IC50 [3] [nM] | Reduction (Cricetinae gen. sp. [5]) [%] | other results
27 | O=C(Nc1ccc(F)cc1F)C1c2ccccc2COc2ccc(Br)cc21 (configuration not stated) | 580 |  | 
28 | Cc1cccc(C)c1NC(=O)C1c2ccccc2COc2ccc(C(C)(C)C)cc21 (configuration not stated) | 500 | -42 | 
29 | CC(C)c1cccc(C(C)C)c1NC(=O)C1c2cc(Br)ccc2COc2ccccc21 (configuration not stated) | 190 |  | Reduction (Mesocricetus auratus): 8%
30 | Cc1ccc2c(c1)C(C(=O)Nc1ccccc1)c1ccccc1CO2 (configuration not stated) |  | 10 | inhibition [4]: 15%
31 | Cc1ccc2c(c1)C(C(=O)Nc1c(C(C)C)cccc1C(C)C)c1ccccc1CC2 (configuration not stated) | 55 |  | Reduction (Cricetinae gen. sp. [1]): -1%; Reduction (Cricetinae gen. sp. [2]): 93%
32 | O=C(Nc1c(Cl)cccc1Cl)C1c2ccccc2COc2cc(Br)ccc21 (configuration not stated) | 940 |  | 
33 | CSc1ccc2c(c1)C(C(=O)Nc1c(C(C)C)cccc1C(C)C)c1ccccc1CO2 (configuration not stated) | 7 |  | Reduction (Mesocricetus auratus): 5%
34 | COc1ccc2c(c1)C(C(=O)Nc1c(C(C)C)cccc1C(C)C)c1ccccc1CO2 (configuration not stated) | 140 |  | Reduction (Mesocricetus auratus): 22%
35 | CC(C)c1cccc(C(C)C)c1NC(=O)C1c2ccccc2C(=O)N(C)c2ccc(Br)cc21 (configuration not stated) | 240 |  | 
36 | Cc1ccc2c(c1)C(C(=O)Nc1c(C)cccc1C)c1ccccc1CO2 (configuration not stated) | 350 | 25 | 
37 | CC(C)c1cccc(C(C)C)c1NC(=O)C1c2ccccc2OCc2ncccc21 (configuration not stated) | 640 |  | 
38 | Cc1cccc(C)c1NC(=O)C1c2ccccc2COc2ccc(C(C)C)cc21 (configuration not stated) | 360 |  | 
39 | CCc1cccc(CC)c1NC(=O)C1c2ccccc2COc2ccc(C(C)C)cc21 (configuration not stated) | 500 | 25 | 
40 | CC(C)c1cccc(C(C)C)c1NC(=O)C1c2ccccc2COc2ccc([N+](=O)[O-])cc21 (configuration not stated) | 240 |  | 
41 | CC(C)c1cccc(C(C)C)c1NC(=O)C1c2ccccc2CCc2ccccc21 | 40 |  | Reduction (Cricetinae gen. sp. [1]): 3%; Reduction (Cricetinae gen. sp. [2]): 89%
42 | CCc1cccc(CC)c1NC(=O)C1c2ccccc2COc2ccc(Br)cc21 (configuration not stated) | 250 | 64 | 
43 | Cc1ccc2c(c1)C(C(=O)Nc1c(C(C)C)cccc1C(C)C)c1cc(Br)ccc1CO2 (configuration not stated) | 120 |  | Reduction (Mesocricetus auratus): 17%
44 | CC(C)c1cccc(C(C)C)c1NC(=O)C1c2ccccc2COc2ccc(CO)cc21 (configuration not stated) | 580 |  | 
45 | Cc1cc(Br)c2c(c1)C(C(=O)Nc1c(C(C)C)cccc1C(C)C)c1ccccc1CO2 (configuration not stated) | 100 |  | Reduction (Mesocricetus auratus): 67%
46 | CC(C)c1cccc(C(C)C)c1NC(=O)C1c2ccccc2CSc2ccc(Br)cc21 (configuration not stated) | 150 |  | Reduction (Cricetinae gen. sp. [2]): 67%
47 | Cc1ccc2c(c1)C(C(=O)Nc1c(Br)cccc1Br)c1ccccc1CO2 (configuration not stated) | 190 | 6 | 
48 | COC(=O)c1ccc2c(c1)C(C(=O)Nc1c(C(C)C)cccc1C(C)C)c1ccccc1CO2 (configuration not stated) | 180 | 89 | 
49 | CC(C)c1cccc(C(C)C)c1/N=C(\S)C1c2ccccc2COc2ccc(Br)cc21 (configuration not stated) |  |  | inhibition [4]: 33%
50 | Cc1cc2c(cc1C)C(C(=O)Nc1c(C(C)C)cccc1C(C)C)c1ccccc1CO2 (configuration not stated) | 64 |  | Reduction (Mesocricetus auratus): 27%
51 | Cc1ccc2c(c1)C(C(=O)Nc1c(C)cccc1Cl)c1ccccc1CO2 (configuration not stated) | 260 |  | 
52 | Cc1cc(C)c(NC(=O)C2c3ccccc3COc3ccc(C)cc32)c(C)c1 (configuration not stated) | 110 |  | 
